Data set [1] has as its target T1, carbonyl reductase 1 (CBR1) (Homo sapiens, UniProt P16152).
T1 sequence (P16152 2-277 limits assumed): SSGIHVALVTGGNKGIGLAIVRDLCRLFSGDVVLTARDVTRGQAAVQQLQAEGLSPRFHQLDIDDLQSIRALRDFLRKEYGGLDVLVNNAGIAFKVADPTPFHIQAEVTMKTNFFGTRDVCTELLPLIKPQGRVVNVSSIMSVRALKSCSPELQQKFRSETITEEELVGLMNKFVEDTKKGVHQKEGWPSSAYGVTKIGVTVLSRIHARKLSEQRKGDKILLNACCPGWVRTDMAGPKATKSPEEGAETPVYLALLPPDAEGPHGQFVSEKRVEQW
Description: Inhibition of flubendazole reduction in pooled human liver cytosol by CBR1 inhibitors. It is filed as biochemical. Particulars: 10 µM FLU, NADPH, inhibitor 0-50 µM.

Another data set deals with T2, human recombinant CBR1 (Homo sapiens, UniProt P16152).
T2 construct: purchased MyBioSource (San Diego, CA, USA)
T2 sequence (P16152 1-277): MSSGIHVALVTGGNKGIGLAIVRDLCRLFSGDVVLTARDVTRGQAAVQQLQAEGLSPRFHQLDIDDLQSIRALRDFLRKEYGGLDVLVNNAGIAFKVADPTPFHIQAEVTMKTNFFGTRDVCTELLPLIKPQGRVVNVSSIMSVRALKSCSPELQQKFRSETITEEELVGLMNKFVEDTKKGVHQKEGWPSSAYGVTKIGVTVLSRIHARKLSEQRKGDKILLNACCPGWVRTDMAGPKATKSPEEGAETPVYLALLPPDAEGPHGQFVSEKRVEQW
Description: Specific activity of human recombinant CBR1 toward substrates (NADPH consumption at 340 nm). It is filed as biochemical. Particulars: 10 µM substrate. Here is the method:
The human recombinant CBR1 activity was assayed using a slight modification of previously published method (Mate et al., [2008]). The assay was performed in four replicates and was repeated three times. […] The activity of CBR1 was assessed using 10-μM concentration of the substrates, MEN, DOX, and FLU. The consumption of NADPH in the reaction mixture, which served for the assessment of the reductase activity, was determined spectrophotometrically at 340 nm at 37°C using the microplate reader Tecan Infinite M200.

Data set [2] can be described thus: Reduction of flubendazole in pooled human liver cytosol (chiral HPLC of FLUR enantiomers). It is filed as in vitro ADME. To be noted: human liver subcellular fractions. Here is the method: Frozen pieces of liver were thawed at room temperature for up to 15 min and individual livers were homogenized in a 0.1 M sodium phosphate buffer, pH 7.4 at the ratio of 1:6 (v/v), using a Potter-Elvehjem homogenizer and sonication with Sonopolus (Bandelin, Germany). The suspension of the SW480 cells was homogenized using sonication only. The subcellular fractions were isolated by differential centrifugation of the homogenates (Gillette, [1971]) and stored at −80°C. Protein concentrations were assayed using the bicinchoninic acid (BCA) assay according to the manufacturer’s instructions (Sigma-Aldrich).
The cytosolic or microsomal fraction was incubated with FLU (10 μM). […]
Details concerning the HPLC analyses including validations were described in Nobilis et al. ([2008]). A chiral HPLC analysis was employed for the determination of reduced FLU (FLUR) enantiomers—(+)-FLUR and (−)-FLUR; concentrations of FLU, (+)-FLUR, and (−)-FLUR in the samples were determined using an internal standard method (I.S., albendazole). […] A tandem of an UV photodiode-array and a fluorescence detector was used for the determination of the abovementioned benzimidazole compounds.

Data set [3] can be described thus: Kinetics of flubendazole reduction ((+)-FLUR formation) in pooled human liver cytosol. It is filed as in vitro ADME. Particulars: for Clint (intrinsic clearance, V′max/K′m) / K’m (apparent Michaelis constant) / V’max (apparent maximal velocity of (+)-FLUR formation): pooled cytosol; for V’max (apparent maximal velocity of (+)-FLUR formation): 0-10 µM FLU.
The subject of data set [4] is doxorubicin reduction in cytosol of cancer cells SW480. Description: Flubendazole effect on doxorubicin reduction (doxorubicinol formation) in cytosol of cancer cells SW480. Particulars: for Doxorubicinol—SW480 (percent of the residual activity): 20 µM doxorubicin, NADPH. It is filed as biochemical, human.
Data set [5] deals with doxorubicin reduction in pooled human liver cytosol. The experiment in a line: Flubendazole effect on doxorubicin reduction (doxorubicinol formation) in pooled human liver cytosol. The class given is biochemical. Particulars: for Doxorubicinol—cytosol (percent of the residual activity): 20 µM doxorubicin, NADPH.
Another data set deals with P-glycoprotein. Also noted: method as in earlier work. To be noted: ref Spagnuolo et al., 2010, Kralova et al., 2013, Michaelis et al., 2015, 2016; cited from earlier work.
Data set [6] is described as follows: Water solubility of flubendazole. It is filed as physicochemical. To be noted: allowed only 10 µM as highest concentration in incubation mixtures.

In general, IC50 refers to the concentration that gives 50% inhibition. High values mean a need for much substance, low ones inhibition by little substance.

SMILES strings stand for the structures.

In the case of `O=c1cc(-c2ccc(O)c(O)c2)oc2cc(O)cc(O)c12` [LUT, luteolin], the IC50 in data set [1] turned out to be 8.21 ± 3.71 µM.

As to `CC1=CC(=O)c2ccccc2C1=O` [MEN, menadione], at human recombinant CBR1, the “Specific activity of human recombinant CBR1 toward the substrate (in words)” value was “highest”. In data set [1], the IC50 was 0.34 ± 0.26 µM.

`COC(=O)Nc1nc2cc(C(=O)c3ccc(F)cc3)ccc2[nH]1` [flubendazole, [5-(4-fluorobenzoyl)-1H-benzimidazol-2-yl]-carbamic acid methyl ester]: the “Specific activity of human recombinant CBR1 toward the substrate (in words)” value on human recombinant CBR1 is “significantly lower than to MEN”. In data set [2], the “Stereospecificity of carbonyl reduction (in words)” value is recorded as “strictly stereospecific”. The “Clint (intrinsic clearance, V′max/K′m)” value in data set [3] (NADH coenzyme) was 0.000012 min⁻¹; in data set [3] (NADPH coenzyme), 0.000023 min⁻¹. Besides, the “K’m (apparent Michaelis constant)” value in data set [3] (NADH coenzyme) came out at 13.34 ± 3.07 µM; in data set [3] (NADPH coenzyme), 19.91 ± 2.49 µM. Further, the “V’max (apparent maximal velocity of (+)-FLUR formation)” value came out at 0.161 ± 0.024 nM/min in data set [3] (NADH coenzyme) and 0.466 ± 0.043 nM/min in data set [3] (NADPH coenzyme). Further, the “Hepatic intrinsic clearance (in words)” value in data set [3] (pooled human liver cytosol) is “very low”. In addition, the figures for the “Doxorubicinol—SW480 (percent of the residual activity)” value in data set [4] (2 µM flubendazole) and in data set [4] (10 µM flubendazole) were 97.6 ± 3.4% and 96.7 ± 2.7%, respectively. Also, the “Inhibition of DOX reduction (in words)” value in data set [4] (SW480 cytosol, FLU 2 and 10 µM) is “did not inhibit”; in data set [5] (human liver cytosol, FLU 2 and 10 µM), “did not inhibit”. The “Doxorubicinol—cytosol (percent of the residual activity)” value in data set [5] (2 µM flubendazole) worked out at 98.0 ± 3.4%; in data set [5] (10 µM flubendazole), 91.4 ± 4.9%. Also, in the data set on P-glycoprotein, the “P-glycoprotein substrate (in words)” value is “not a substrate for P-glycoprotein”. Also, in data set [6], the “Water solubility (in words)” value is reported as “poor”.

Values taken from paper PMC6546852, “Carbonyl Reduction of Flubendazole in the Human Liver: Strict Stereospecificity, Sex Difference, Low Risk of Drug Interactions” (Frontiers in Pharmacology, 2019).
